According to PubChem BioAssay (NCI):
Where “and” joins values, the source holds several entries; their conditions need not be identical. Equal values may be shown once.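 Cells were grown in 96-well plates and exposed to each compound for 48 hours at five concentrations; endpoints were interpolated linearly between bracketing concentrations, or set to the highest concentration if not reached. GI50 is the concentration that inhibits growth by half. TGI marks complete inhibition of growth.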

Columns and labels:
Experiment in all cases: growth of human tumour cells (NCI), 48 h
[1] = tested on: SNB-19 CNS
[2] = tested on: SNB-75 CNS
[3] = tested on: MCF7 breast
[4] = tested on: HCT-116 colon
[5] = tested on: IGROV1 ovarian
[6] = tested on: HS 578T breast
[7] = tested on: NCI-H522 lung
[8] = tested on: OVCAR-5 ovarian
[9] = tested on: RPMI-8226 leukemia
[10] = tested on: MOLT-4 leukemia

SMILES: N=C(N)n1[nH]c2c(c1=O)CCC2
- TGI [1]: > 100 µM
- TGI [2]: > 100 µM
- TGI [3]: > 100 µM
- TGI [4]: > 100 µM
- TGI [5]: > 100 µM
- TGI [6]: > 100 µM
- TGI [7]: > 100 µM
- TGI [8]: > 100 µM

SMILES: c1ccc(C(CCN2CCCC2)c2ccccn2)cc1 (stereo unspecified)
- TGI [1]: > 100 µM
- TGI [2]: > 100 µM
- TGI [3]: > 100 µM
- TGI [4]: > 100 µM
- TGI [5]: > 100 µM
- TGI [6]: > 100 µM
- TGI [7]: > 100 µM
- TGI [9]: > 100 µM
- TGI [8]: > 100 µM

SMILES: COc1ccc(N2CCN(c3ccc4c(c3)NCC(=O)N4)CC2)cc1
- TGI [1]: > 100 µM
- TGI [2]: 93.8 µM
- TGI [3]: > 100 µM
- TGI [10]: > 100 µM
- TGI [4]: > 100 µM
- TGI [5]: > 100 µM
- TGI [6]: 67.1 µM
- TGI [7]: 30.8 µM
- TGI [9]: 67.5 µM
- TGI [8]: > 100 µM

SMILES: COC(=O)C1(NC(=O)C(N)CC(=O)O)C(C)C1C (stereo unspecified)
- TGI [1]: > 100 µM
- TGI [2]: > 100 µM
- TGI [3]: > 100 µM
- TGI [10]: > 100 µM
- TGI [4]: > 100 µM
- TGI [5]: > 100 µM
- TGI [6]: > 100 µM
- TGI [7]: > 100 µM
- TGI [9]: > 100 µM
- TGI [8]: > 100 µM

SMILES: O=c1c2c([nH]c3cc4c(cc13)OCO4)-c1ccccc1CCC2
- TGI [1]: > 50 µM
- TGI [2]: > 50 µM
- TGI [3]: > 50 µM
- TGI [10]: > 50 µM
- TGI [4]: > 50 µM
- TGI [5]: > 50 µM
- TGI [6]: > 50 µM
- TGI [7]: > 50 µM
- TGI [9]: > 50 µM
- TGI [8]: > 50 µM

SMILES: C=C(C)CC1=C(C(=S)NCCO[Si](C)(C)C(C)(C)C)C(OCC)(OCC)C1=O
- TGI [1]: 38.3 µM
- TGI [2]: 36.8 µM
- TGI [3]: 35.9 µM
- TGI [10]: > 100 µM
- TGI [4]: 50 µM
- TGI [5]: 31.3 µM
- TGI [6]: > 100 µM
- TGI [7]: 29 µM
- TGI [8]: 28.5 µM

SMILES: Cc1ccccc1NC(=S)N/N=C(/c1ccccc1)c1ccccn1
- TGI [1]: 16.5 µM
- TGI [2]: 17.4 µM
- TGI [3]: 15.3 µM
- TGI [10]: 3.98 µM
- TGI [4]: 17.2 µM
- TGI [5]: 15.3 µM
- TGI [6]: 31.2 µM
- TGI [7]: 3.4 µM
- TGI [9]: 10.2 µM
- TGI [8]: 10.6 µM

SMILES: Cc1ccc(S(=O)(=Nc2ccccc2)C(C(C)C)C(C)(C)Cl)cc1 (stereo unspecified)
- TGI [1]: > 50 µM
- TGI [2]: > 50 µM
- TGI [3]: > 50 µM
- TGI [10]: 32.3 µM
- TGI [4]: > 50 µM
- TGI [5]: > 50 µM
- TGI [6]: > 50 µM
- TGI [7]: > 50 µM
- TGI [9]: > 50 µM
- TGI [8]: > 50 µM

SMILES: CCOC(=O)/C=C(/C(=O)OCC)n1c(=O)c(C)cn(C2CC(N=[N+]=[N-])C(CO)O2)c1=O (stereo unspecified)
- TGI [1]: > 100 µM
- TGI [2]: > 100 µM
- TGI [3]: 50.2 µM
- TGI [10]: 25.6 µM
- TGI [4]: > 100 µM
- TGI [5]: > 100 µM
- TGI [6]: > 100 µM
- TGI [7]: > 100 µM
- TGI [9]: 49 µM
- TGI [8]: > 100 µM

SMILES: CCC(=N\NC(N)=S)/C(C)=N/O
- TGI [1]: > 100 µM
- TGI [3]: > 100 µM
- TGI [4]: > 100 µM
- TGI [5]: > 100 µM
- TGI [6]: > 100 µM
- TGI [9]: > 100 µM
- TGI [8]: > 100 µM

SMILES: COC(=O)C[C@H](COCc1ccccc1)NC(=O)C[C@H](COCc1ccccc1)NC(=O)C[C@H](COCc1ccccc1)NC(=O)OC(C)(C)C
- TGI [1]: > 100 µM
- TGI [2]: 38 µM
- TGI [3]: 28.9 µM
- TGI [10]: > 100 µM
- TGI [4]: 67 µM
- TGI [5]: > 100 µM
- TGI [6]: > 100 µM
- TGI [7]: > 100 µM
- TGI [9]: > 100 µM
- TGI [8]: > 100 µM

SMILES: CCCCCCC(CCl)c1sc(-c2csc(CCNC(=O)OC(C)(C)C)n2)nc1C(=O)OC (stereo unspecified)
- TGI [1]: > 100 µM
- TGI [3]: 29.5 µM
- TGI [10]: 24.2 µM
- TGI [4]: 31.6 µM
- TGI [5]: > 100 µM
- TGI [6]: 65.9 µM
- TGI [7]: > 100 µM
- TGI [9]: > 100 µM
- TGI [8]: > 100 µM

SMILES: CN(C)CCCNC(=O)c1cc(NC(=O)c2cc(NC(=O)c3cc(NC(=O)CCCn4ccc(CO)c4CO)cn3C)cn2C)cn1C
- TGI [1]: > 100 µM
- TGI [2]: 44.4 µM
- TGI [3]: > 100 µM
- TGI [10]: > 100 µM
- TGI [4]: > 100 µM
- TGI [5]: > 100 µM
- TGI [6]: 98.2 µM
- TGI [7]: 8.38 µM
- TGI [8]: > 100 µM

SMILES: C1OCN2c3nonc3N3COCN4c5nonc5N1C2C43 (stereo unspecified)
- TGI [1]: > 100 µM
- TGI [2]: > 100 µM
- TGI [3]: > 100 µM
- TGI [10]: > 100 µM
- TGI [4]: > 100 µM
- TGI [5]: > 100 µM
- TGI [6]: > 100 µM
- TGI [7]: > 100 µM
- TGI [9]: > 100 µM
- TGI [8]: > 100 µM

SMILES: Oc1c(I)cc(I)cc1CNCCCN(Cc1ccccn1)Cc1ccccn1
- GI50 [1]: 1.49 µM
- TGI [1]: 5.5 µM
- GI50 [2]: 0.836 µM
- TGI [2]: 4.32 µM
- GI50 [3]: 1.2 µM
- TGI [3]: 3.59 µM
- GI50 [10]: 1.18 µM
- TGI [10]: 2.92 µM
- GI50 [5]: 0.866 µM
- TGI [5]: 1.65 µM
- GI50 [6]: 1.38 µM
- TGI [6]: 4.53 µM
- GI50 [7]: 1.34 µM
- TGI [7]: 4.48 µM
- GI50 [9]: 1.34 µM
- TGI [9]: 4.47 µM
- GI50 [8]: 0.953 µM
- TGI [8]: 2.11 µM

SMILES: Cc1cc(=O)c2c(O)c3c(O)cc(O)c4c5c(O)cc(O)c6c(O)c7c(=O)cc(C)c8c1c2c(c34)c(c65)c78
- TGI [1]: > 100 µM
- GI50 [2]: > 100 µM and 32.3 µM
- TGI [2]: > 100 µM
- GI50 [3]: > 100 µM and 16.6 µM
- TGI [3]: > 100 µM and 36.3 µM
- TGI [10]: > 100 µM and 24.2 µM
- GI50 [4]: > 100 µM and 21.6 µM
- TGI [4]: > 100 µM and 64.2 µM
- GI50 [5]: > 100 µM
- TGI [5]: > 100 µM
- TGI [6]: > 100 µM
- GI50 [7]: > 100 µM and 19.4 µM
- TGI [7]: > 100 µM and 44.2 µM
- GI50 [9]: > 100 µM and 22.3 µM
- TGI [9]: > 100 µM
- GI50 [8]: > 100 µM and 24.7 µM
- TGI [8]: > 100 µM and 45.3 µM

SMILES: O=C(NCCO)c1c(O)c2ccccc2[nH]c1=O
- TGI [1]: > 100 µM
- TGI [2]: > 100 µM
- TGI [3]: > 100 µM
- TGI [10]: > 100 µM
- TGI [4]: > 100 µM
- TGI [5]: > 100 µM
- TGI [6]: > 100 µM
- TGI [7]: > 100 µM
- TGI [9]: > 100 µM
- TGI [8]: > 100 µM

SMILES: COC(=O)C1=C(OC(=O)/C(=C/c2ccc(Cl)cc2)c2ccccc2)C(C(=O)OC)[C@@]2(O)[C@@H](C(=O)OC)[C@H](C)C[C@@H]1[C@@H]2C(=O)OC (stereo partly specified)
- TGI [1]: > 100 µM
- TGI [2]: > 100 µM
- TGI [3]: > 100 µM
- TGI [10]: > 100 µM
- TGI [4]: > 100 µM
- TGI [5]: > 100 µM
- TGI [6]: > 100 µM
- TGI [7]: > 100 µM
- TGI [9]: > 100 µM
- TGI [8]: > 100 µM

SMILES: Cc1ccc([N+](=O)[O-])cc1S(=O)(=O)Nc1ccc(C2=NN(c3ccc([N+](=O)[O-])cc3[N+](=O)[O-])C(c3ccccc3O)C2)cc1 (stereo unspecified)
- TGI [1]: > 100 µM
- TGI [2]: > 100 µM
- TGI [3]: > 100 µM
- TGI [10]: > 100 µM
- TGI [4]: > 100 µM
- TGI [5]: > 100 µM
- TGI [6]: > 100 µM
- TGI [7]: 83.1 µM
- TGI [9]: > 100 µM
- TGI [8]: > 100 µM
